Assay results reported in patent US20130109693A1, “DERIVATIVES OF PYRIDO [3,2-D] PYRIMIDINE, METHODS FOR PREPARATION THEREOF AND THERAPEUTIC USES THEREOF” (UNIVERSITE D'ORLEANS, priority 2010, published 2013).

How the values were obtained:
[1] = system: NCI; experiment: Cytotoxicity on human cells, NCI (lung); assay type: cell-based; conditions: exposed 24 h and 48 h, 0.1 to 25 μM
Experimental: (§1) […] Dosages on Human cells (Huh7, Caco, MDA-MB 231, HCT 116, PC3, NCl, Fibroblast)
(§2) Cytotoxicity: This method is based on an automated imaging analysis. 4.10^3 cells were cultivated on 96-well plates and thus left for 24 hours so that they may bind, be distributed and proliferate.
(§3) These cells were then exposed for 24 h and 48 h to increasing concentrations of the compounds of the invention, from 0.1 to 25 μM in a final volume of 80 μL of culture medium. The cells are then set with a 4% paraformaldehyde solution and the nuclei are colored with Hoechst 3342 and counted according to automated imaging quantification.
(§4) All the cell lines were cultivated in a DMEM or RPMI (Invitrogen) medium. All these media were completed with antibiotics (penicillin-streptomycin)(Lonza) and 10% by volume of foetal calf serum (Invitrogen). The cells were cultivated at 37° C. with 5% of CO2. The treatments with the molecules to be tested were carried out with increasing concentrations. […] The control experiments were also conducted by using suitable dilutions of DMSO (maximum 1% DMSO). Cell viability was determined by measuring the reduction of MTS as described in the article of Ribas J, Boix J. (2004). Cell differentiation caspase inhibition and macromolecular synthesis blockage but not BCL-2 or BCL-XL proteins protect SH-SY5Y cells from apoptosis triggered by two CDK inhibitory drugs. Exp. Cell Res., 295: 9-24.

[2] = system: fibroblast; experiment: Cytotoxicity on human cells, fibroblast; assay type: cell-based; conditions: exposed 24 h and 48 h, 0.1 to 25 μM
Experimental: as §1, §2, §3, §4

[3] = molecular target: GSK-3αβ; experiment: GSK-3αβ kinase inhibition (GS-1 substrate, buffer A); assay type: biochemical; conditions: 15 μM ATP, 30° C., native, pig brain; read-out: IC50 Kinases GSK3
Experimental: (§5) The activities for inhibiting protein kinases of the compounds of the invention are tested according to the following general procedure:
(§6) Buffer A: 10 mM MgCl2, 1 mM EGTA, 1 mM DTT, 25 mM Tris-HCl pH 7.5 and 50 μg heparin/mL.
(§7) The kinase activities are dosed in buffers A or C, at 30° C., at a final concentration of ATP of 15 μM. The values of the blanks were subtracted and the activities are expressed as a % of the maximum activity, i.e. in the absence of inhibitors. The controls were carried out with suitable dilutions of DMSO.
GSK-3αβ (from pig brain, native) was assayed by using a specific substrate of GSK-3 (GS-1: […]pEDEEE)(Sp represents a phosphorylated serine) (Primot, A., Baratte, B., Gompel, M., Borgne, A., Liabeuf, S., Romette, J. L., Costantini, F. and Meijer, L., 2000. Purification of GSK-3 by affinity chromatography on immobilized axin. Protein Expr. & Purif. 20 (3), 394-404). GS-1 was synthesized by Millegen (Labège, France). Its kinase activity was analyzed in the buffer A, with 1 mg of histone H1/mL, in the presence of 15 μM of [γ-^33P] ATP (3,000 Ci/mmol; 10 mCi/mL) in a final volume of 30 μl. After 30 mins of incubation at 30° C., 25 μl of supernatant aliquots were deposited on 2.5×3 cm pieces of phosphocellulose Whatman P81papier, and after 20 seconds, the filters were washed five times (for at least 5 minutes every time) in a solution of 10 mL of phosphoric acid/liter of water. The wet filters were counted in the presence of 1 mL of ACS scintillator fluid (Amersham).

[4] = system: Caco; experiment: Cytotoxicity on human cells, Caco (colon); assay type: cell-based; conditions: exposed 24 h and 48 h, 0.1 to 25 μM
Experimental: as §1, §2, §3, §4

[5] = system: Huh7; experiment: Cytotoxicity on human cells, Huh7 (liver); assay type: cell-based; conditions: Huh-7, human cells, exposed 24 h and 48 h, 0.1 to 25 μM
Experimental: as §1, §2, §3, §4

[6] = system: HCT 116; experiment: Cytotoxicity on human cells, HCT 116 (colon); assay type: cell-based; conditions: exposed 24 h and 48 h, 0.1 to 25 μM
Experimental: as §1, §2, §3, §4

[7] = molecular target: DYRK1A (Homo sapiens, UniProt Q13627); experiment: DYRK1A kinase inhibition (Woodtide substrate, buffer A); assay type: biochemical; conditions: 15 μM ATP, 30° C., recombinant GST fusion; read-out: IC50 Kinases DYRK1A
Experimental: as §5, §6, §7

[8] = molecular target: T1, CDK5 (Homo sapiens, UniProt Q00535); experiment: CDK5 kinase inhibition (histone H1, [γ-33P] ATP, buffer C); assay type: biochemical; conditions: 15 μM ATP, 30° C., recombinant; read-out: IC50 Kinases CDK5
T1 construct: made in house
Experimental: as §5
Buffer C: 60 mM β-glycerophosphate, 15 mM p-nitrophenyl-phosphate, 25 mM Mops (pH 7.2), 5 mM EGTA, 15 mM MgCl2, 1 mM DTT, 1 mM of sodium vanadate
as §7
CDK5 (humane, recombinant) was prepared as described earlier (Leclerc, S.; Garnier, M.; Hoessel, R.; Marko, D.; Bibb, J. A.; Snyder, G. L.; Greengard, P.; Biernat, J.; Mandelkow, E.-M.; Eisenbrand, G.; Meijer, L. Indirubins inhibit glycogen synthase kinase-3β and CDK5/p25, two kinases involved in abnormal tau phosphorylation in Alzheimer's disease—A property common to most CDK inhibitors? J. Biol. Chem. 2001, 276, 251-260; Bach S, Knockaert M, Reinhardt J, Lozach O, Schmitt S, Baratte B et al. (2005). Roscovitine targets, protein kinases and pyridoxal kinase. J. Biol Chem 280: 31208-31219). Its kinase activity was analyzed in the buffer C, with 1 mg of histone H1/mL, in the presence of 15 μM of [γ-^33P] ATP (3,000 Ci/mmol; 10 mCi/mL) in a final volume of 30 μl. After 30 mins of incubation at 30° C., 25 μl of supernatant aliquots were deposited on 2.5×3 cm pieces of phosphocellulose Whatman P81 paper, and after 20 seconds, the filters were washed five times (for at least 5 minutes every time) in a solution of 10 mL phosphoric acid/liter of water. The wet filters were counted in the presence of 1 mL of ACS scintillator fluid (Amersham).

[9] = system: PC3; experiment: Cytotoxicity on human cells, PC3 (prostate); assay type: cell-based; conditions: PC-3, human cells, exposed 24 h and 48 h, 0.1 to 25 μM
Experimental: as §1, §2, §3, §4

[10] = system: MDA-MB 231; experiment: Cytotoxicity on human cells, MDA-MB 231 (breast); assay type: cell-based; conditions: MDA-MB-231, human cells, exposed 24 h and 48 h, 0.1 to 25 μM
Experimental: as §1, §2, §3, §4

T1 sequence (Q00535 whole entry): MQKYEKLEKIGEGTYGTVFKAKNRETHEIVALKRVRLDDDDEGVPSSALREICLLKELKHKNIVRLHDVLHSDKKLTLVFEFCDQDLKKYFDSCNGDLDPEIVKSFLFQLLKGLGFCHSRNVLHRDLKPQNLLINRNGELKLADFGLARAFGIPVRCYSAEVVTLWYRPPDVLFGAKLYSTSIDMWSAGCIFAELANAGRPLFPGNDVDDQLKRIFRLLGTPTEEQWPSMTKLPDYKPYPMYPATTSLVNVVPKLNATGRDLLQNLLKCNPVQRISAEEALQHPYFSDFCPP
T1 sequence (Q15078 99-307 partner limits assumed): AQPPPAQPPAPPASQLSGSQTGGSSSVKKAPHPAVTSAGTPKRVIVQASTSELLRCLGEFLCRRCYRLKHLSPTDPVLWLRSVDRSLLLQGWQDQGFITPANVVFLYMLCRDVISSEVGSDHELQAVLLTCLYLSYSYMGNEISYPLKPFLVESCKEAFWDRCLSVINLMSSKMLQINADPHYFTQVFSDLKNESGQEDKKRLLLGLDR

SMILES	IC50 [1] [µM]	IC50 [2] [µM]	IC50 [3] [µM]	IC50 [4] [µM]	IC50 [5] [µM]	IC50 [6] [µM]	IC50 [7] [µM]	IC50 [8] [µM]	IC50 [9] [µM]	melting point [°C]	IC50 [10] [µM]
Oc1ccc(-c2ncc3ncc(-c4ccccc4O)cc3n2)cc1 [Compound 24, 2-(4-Hydroxyphenyl)-7-(2-hydroxyphenyl)-pyrido[3,2-d]pyrimidine]	> 25	> 25	≥ 100	20	25	20	2.7	0.09	20	278 to 279	> 25
Oc1ccc(-c2ncc3ncc(-c4ccc(C(F)(F)F)cc4)cc3n2)cc1 [Compound 25, 2-(4-Hydroxyphenyl)-7-(4-trifluoromethylphenyl)-pyrido[3,2-d]pyrimidine]	20	> 25	≥ 100	> 25	25	> 25	24	0.97	> 25	203 to 204	> 25
Cc1ncccc1Nc1cnc2cnc(-c3ccc(O)cc3)nc2c1 [Compound 53, 2-(4-Hydroxyphenyl)-7-(3-(2-methyl)-pyridinylamino)-pyrido[3,2-d]pyrimidine]	15	10	> 10	15	12	> 25	> 10	> 10	6	186 to 188	9
Oc1ccc(-c2ncc3ncc(Nc4nc5ccccc5s4)cc3n2)cc1 [Compound 47, 2-(4-Hydroxyphenyl)-7-(2-benzothiazolamino)-pyrido[3,2-d]pyrimidine]	> 25	> 25	> 10	> 25	> 25	> 25	> 10	5.3	> 25	> 268	> 25
Cc1csc(Nc2cnc3cnc(-c4ccc(O)cc4)nc3c2)n1 [Compound 50, 2-(4-Hydroxyphenyl)-7-(2-(4-methyl)thiazolamino)-pyrido[3,2-d]pyrimidine]	25	> 25	> 10	> 25	10	> 25	> 10	> 10	> 25	> 268	25
Oc1ccc(-c2ncc3ncc(Nc4ncccn4)cc3n2)cc1 [Compound 52, 2-(4-Hydroxyphenyl)-7-(2-pyrimidinylamino)-pyrido[3,2-d]pyrimidine]	1.5	2	> 10	5	25	2	> 10	7.6	1.5	> 268	2.5
CS(=O)(=O)c1ccc(-c2cnc3cnc(-c4ccc(O)cc4)nc3c2)cc1 [Compound 26, 2-(4-Hydroxyphenyl)-7-(4-methanesulfonylphenyl)-pyrido[3,2-d]pyrimidine]	> 25	> 25	> 100	> 25	> 25	> 25	> 10	0.48	> 25	306 to 307	> 25
Oc1ccc(-c2ncc3ncc(-c4ccsc4)cc3n2)cc1 [Compound 37, 2-(4-Hydroxyphenyl)-7-(3-thiophyl)-pyrido[3,2-d]pyrimidine]	10	> 25	> 10	> 25	> 25	15	> 10	0.12	> 25	248 to 250	> 25
COc1ccc(Nc2cnc3c(NCc4ccccc4)nc(NCCO)nc3c2)cc1OC [Compound 85, 4-Benzylamino-7-(3,4-dimethoxyphenylamino)-2-(2-hydroxyethylamino)-pyrido[3,2-d]pyrimidine]	2	5	> 10	4	1.5	4	> 10	> 10	4	149 to 150	15
Oc1ccccc1-c1cnc2cnc(-c3ccccc3O)nc2c1 [Compound 22, 2,7-Di-(2-hydroxyphenyl)-pyrido[3,2-d]pyrimidine]	2	> 25	> 10	> 25	> 25	> 25	> 10	> 10	> 25	239 to 240	> 25
COc1ccc(-c2cnc3cnc(-c4ccc(O)cc4)nc3c2)cn1 [Compound 32, 2-(4-Hydroxyphenyl)-7-(3-(6-methoxy)-pyridinyl)-pyrido[3,2-d]pyrimidine]	25	10	> 10	> 25	> 25	> 25	> 10	1.2	> 25	246 to 248	25
